Patent US12491173B2, “Metabolism-improving agent comprising rare fatty acid” (Noster Inc., priority 2014, dated 2025)

What was measured:
[1] = biological target: T1, fusion protein of PPARγ ligand binding region and GAL4 DNA binding region (Homo sapiens, UniProt P37231); experiment: PPARγ ligand activity, GAL4 fusion luciferase reporter assay in CV-1 cell; type: cell-based; settings: sample 10 μM and 30 μM, vs ethanol negative control, FIG. 3
T1 construct: expressed in transfected cells; host or cells: CV-1 cell
T1 sequence (P37231 238-503 limits assumed): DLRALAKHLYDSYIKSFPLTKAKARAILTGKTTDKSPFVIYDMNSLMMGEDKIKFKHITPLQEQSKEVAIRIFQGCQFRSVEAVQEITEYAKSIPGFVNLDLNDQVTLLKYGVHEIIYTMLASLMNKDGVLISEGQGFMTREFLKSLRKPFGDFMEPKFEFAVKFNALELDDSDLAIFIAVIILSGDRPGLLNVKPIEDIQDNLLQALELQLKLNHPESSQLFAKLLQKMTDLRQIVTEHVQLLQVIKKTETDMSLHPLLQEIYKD
Description: (§1) To evaluate the function of hydroxylated fatty acid and oxo fatty acid and the like, PPARα, γ-activating action was measured first. The measurement was performed in reference to Nobuyuki Takahashi et al., FEBS Letters 514 (2002) p. 315-322, “Dual action of isoprenols from herbal medicines on both PPARgamma and PPARalpha in 3T3-L1 adipocytes and HepG2 hepatocytes.”, the section of Materials and Methods “Reporter plasmids and luciferase assays”. To be specific, PPARα,γ ligand activity was measured by a reporter assay that evaluates binding to a fusion protein of PPAR ligand binding region and GAL4 DNA binding region and target gene activation, based on the expression of luciferase. Specifically, a plasmid comprising a DNA encoding a fusion protein of PPARα,γ ligand binding region and GAL4 DNA binding region and a reporter plasmid wherein luciferase linked to GAL4 bound DNA sequence were introduced into CV-1 cell, a ligand described below was added to the cell, the cell was incubated and the luciferase activity was detected.
(§2) The concentration (10 μM and 30 μM) of the sample was adjusted with ethanol. Ethanol was used as a negative control, and PPARα,γ ligands GW7647 (10 nM) and troglitazone (5 μM) were used as a positive control.

[2] = biological target: T2, fusion protein of PPARα ligand binding region and GAL4 DNA binding region (Homo sapiens, UniProt Q07869); experiment: PPARα ligand activity, GAL4 fusion luciferase reporter assay in CV-1 cell; type: cell-based; settings: sample 10 μM and 30 μM, vs ethanol negative control, FIG. 2
T2 construct: expressed in transfected cells; host or cells: CV-1 cell
T2 sequence (Q07869 239-466 limits assumed): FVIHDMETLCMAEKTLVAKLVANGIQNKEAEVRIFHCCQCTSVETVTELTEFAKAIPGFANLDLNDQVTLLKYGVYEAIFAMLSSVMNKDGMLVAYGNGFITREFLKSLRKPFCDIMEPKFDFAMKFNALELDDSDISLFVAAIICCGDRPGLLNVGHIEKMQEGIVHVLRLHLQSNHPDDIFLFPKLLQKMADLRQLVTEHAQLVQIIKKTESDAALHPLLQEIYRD
Description: as §1, §2

PPARγ agonist activity (relative luciferase activity) [1] | PPARα agonist activity (relative luciferase activity) [2] | SMILES
strong PPARγ agonist activity |  | CC/C=C\CC(=O)CC/C=C\CCCCCCCC(=O)O [13-OXO ALA, 13-oxo-cis-9,cis-15-octadecadienoic acid]
 | strong PPARα agonist activity | CCCCCC(=O)CC/C=C\C/C=C\CCCCC(=O)O [13-OXO GLA, 13-oxo-cis-6,cis-9-octadecadienoic acid]
